Source: publication PMC12667739 (ACS infectious diseases, 2025)

biological target: T1, ComD (Streptococcus gordonii, UniProt O33646); experiment: cell-based

Row | SMILES | EC50 [µM]
1 | CC[C@H](C)[C@H](NC(=O)[C@H](CCCNC(=N)N)NC(=O)[C@H](C)NC(=O)[C@H](CCCNC(=N)N)NC(=O)[C@@H](NC(=O)[C@@H](N)CC(=O)O)[C@@H](C)CC)C(=O)N[C@@H](CC(N)=O)C(=O)N[C@@H](CC(N)=O)C(=O)N[C@@H](CO)C(=O)N[C@H](C(=O)N[C@@H](Cc1c[nH]c2ccccc12)C(=O)N[C@@H](CCCNC(=N)N)C(=O)N[C@@H](CC(=O)O)C(=O)N[C@H](C(=O)N[C@@H](Cc1ccccc1)C(=O)N[C@@H](CC(C)C)C(=O)N[C@@H](CCCCN)C(=O)N[C@@H](CCCNC(=N)N)C(=O)N[C@@H](CCCCN)C(=O)O)[C@@H](C)CC)[C@@H](C)CC [Peptide H4A] | 0.722
2 | CC[C@H](C)[C@H](NC(=O)[C@H](CC(=O)O)NC(=O)[C@H](CCCNC(=N)N)NC(=O)[C@H](Cc1c[nH]c2ccccc12)NC(=O)[C@@H](NC(=O)[C@H](CO)NC(=O)[C@H](CC(N)=O)NC(=O)[C@H](CC(N)=O)NC(=O)[C@@H](NC(=O)[C@H](CCCNC(=N)N)NC(=O)[C@H](Cc1c[nH]cn1)NC(=O)[C@H](CCCNC(=N)N)NC(=O)[C@@H](NC(=O)[C@@H](N)CC(=O)O)[C@@H](C)CC)[C@@H](C)CC)[C@@H](C)CC)C(=O)N[C@@H](Cc1ccccc1)C(=O)N[C@@H](CC(C)C)C(=O)N[C@@H](C)C(=O)N[C@@H](CCCNC(=N)N)C(=O)N[C@@H](CCCCN)C(=O)O [Peptide K17A] | 0.426
3 | CC[C@H](C)[C@H](NC(=O)[C@H](CC(=O)O)NC(=O)[C@H](CCCNC(=N)N)NC(=O)[C@H](Cc1c[nH]c2ccccc12)NC(=O)[C@@H](NC(=O)[C@H](CO)NC(=O)[C@H](CC(N)=O)NC(=O)[C@H](CC(N)=O)NC(=O)[C@@H](NC(=O)[C@H](CCCNC(=N)N)NC(=O)[C@H](Cc1c[nH]cn1)NC(=O)[C@H](CCCNC(=N)N)NC(=O)[C@@H](NC(=O)[C@@H](N)CC(=O)O)[C@@H](C)CC)[C@@H](C)CC)[C@@H](C)CC)C(=O)N[C@@H](Cc1ccccc1)C(=O)N[C@@H](CC(C)C)C(=O)N[C@@H](CCCCN)C(=O)N[C@@H](CCCNC(=N)N)C(=O)N[C@@H](C)C(=O)O [Peptide K19A] | 0.272
4 | CC[C@H](C)[C@H](NC(=O)[C@H](CC(=O)O)NC(=O)[C@H](CCCNC(=N)N)NC(=O)[C@H](Cc1c[nH]c2ccccc12)NC(=O)[C@@H](NC(=O)[C@H](CO)NC(=O)[C@H](CC(N)=O)NC(=O)[C@H](CC(N)=O)NC(=O)[C@@H](NC(=O)[C@H](CCCNC(=N)N)NC(=O)[C@H](Cc1c[nH]cn1)NC(=O)[C@H](CCCNC(=N)N)NC(=O)[C@@H](NC(=O)[C@@H](N)CC(=O)O)[C@@H](C)CC)[C@@H](C)CC)[C@@H](C)CC)C(=O)N[C@@H](Cc1ccccc1)C(=O)N[C@@H](C)C(=O)N[C@@H](CCCCN)C(=O)N[C@@H](CCCNC(=N)N)C(=O)N[C@@H](CCCCN)C(=O)O [Peptide L16A] | 0.127
5 | CC[C@H](C)[C@H](NC(=O)[C@H](CCCNC(=N)N)NC(=O)[C@H](Cc1c[nH]cn1)NC(=O)[C@H](CCCNC(=N)N)NC(=O)[C@@H](NC(=O)[C@@H](N)CC(=O)O)[C@@H](C)CC)C(=O)N[C@@H](C)C(=O)N[C@@H](CC(N)=O)C(=O)N[C@@H](CO)C(=O)N[C@H](C(=O)N[C@@H](Cc1c[nH]c2ccccc12)C(=O)N[C@@H](CCCNC(=N)N)C(=O)N[C@@H](CC(=O)O)C(=O)N[C@H](C(=O)N[C@@H](Cc1ccccc1)C(=O)N[C@@H](CC(C)C)C(=O)N[C@@H](CCCCN)C(=O)N[C@@H](CCCNC(=N)N)C(=O)N[C@@H](CCCCN)C(=O)O)[C@@H](C)CC)[C@@H](C)CC [Peptide N7A] | 0.203
6 | CC[C@H](C)[C@H](NC(=O)[C@H](CCCNC(=N)N)NC(=O)[C@H](Cc1c[nH]cn1)NC(=O)[C@H](CCCNC(=N)N)NC(=O)[C@@H](NC(=O)[C@@H](N)CC(=O)O)[C@@H](C)CC)C(=O)N[C@@H](CC(N)=O)C(=O)N[C@@H](C)C(=O)N[C@@H](CO)C(=O)N[C@H](C(=O)N[C@@H](Cc1c[nH]c2ccccc12)C(=O)N[C@@H](CCCNC(=N)N)C(=O)N[C@@H](CC(=O)O)C(=O)N[C@H](C(=O)N[C@@H](Cc1ccccc1)C(=O)N[C@@H](CC(C)C)C(=O)N[C@@H](CCCCN)C(=O)N[C@@H](CCCNC(=N)N)C(=O)N[C@@H](CCCCN)C(=O)O)[C@@H](C)CC)[C@@H](C)CC [Peptide N8A] | 0.692
7 | CC[C@H](C)[C@H](NC(=O)[C@H](CO)NC(=O)[C@H](CC(N)=O)NC(=O)[C@H](CC(N)=O)NC(=O)[C@@H](NC(=O)[C@H](CCCNC(=N)N)NC(=O)[C@H](Cc1c[nH]cn1)NC(=O)[C@H](CCCNC(=N)N)NC(=O)[C@@H](NC(=O)[C@@H](N)CC(=O)O)[C@@H](C)CC)[C@@H](C)CC)C(=O)N[C@@H](Cc1c[nH]c2ccccc12)C(=O)N[C@@H](C)C(=O)N[C@@H](CC(=O)O)C(=O)N[C@H](C(=O)N[C@@H](Cc1ccccc1)C(=O)N[C@@H](CC(C)C)C(=O)N[C@@H](CCCCN)C(=O)N[C@@H](CCCNC(=N)N)C(=O)N[C@@H](CCCCN)C(=O)O)[C@@H](C)CC [Peptide R12A] | 0.127
8 | CC[C@H](C)[C@H](NC(=O)[C@H](CC(=O)O)NC(=O)[C@H](CCCNC(=N)N)NC(=O)[C@H](Cc1c[nH]c2ccccc12)NC(=O)[C@@H](NC(=O)[C@H](CO)NC(=O)[C@H](CC(N)=O)NC(=O)[C@H](CC(N)=O)NC(=O)[C@@H](NC(=O)[C@H](CCCNC(=N)N)NC(=O)[C@H](Cc1c[nH]cn1)NC(=O)[C@H](CCCNC(=N)N)NC(=O)[C@@H](NC(=O)[C@@H](N)CC(=O)O)[C@@H](C)CC)[C@@H](C)CC)[C@@H](C)CC)C(=O)N[C@@H](Cc1ccccc1)C(=O)N[C@@H](CC(C)C)C(=O)N[C@@H](CCCCN)C(=O)N[C@@H](C)C(=O)N[C@@H](CCCCN)C(=O)O [Peptide R18A] | 0.406
9 | CC[C@H](C)[C@H](NC(=O)[C@H](CC(=O)O)NC(=O)[C@H](CCCNC(=N)N)NC(=O)[C@H](Cc1c[nH]c2ccccc12)NC(=O)[C@@H](NC(=O)[C@H](CO)NC(=O)[C@H](CC(N)=O)NC(=O)[C@H](CC(N)=O)NC(=O)[C@@H](NC(=O)[C@H](CCCNC(=N)N)NC(=O)[C@H](Cc1c[nH]cn1)NC(=O)[C@H](CCCNC(=N)N)NC(=O)[C@@H](NC(=O)[C@@H](N)CC(=O)O)[C@@H](C)CC)[C@@H](C)CC)[C@@H](C)CC)C(=O)N[C@@H](Cc1ccccc1)C(=O)N[C@@H](CC(C)C)C(=O)N[C@@H](CCCCN)C(=O)N[C@@H](CCCNC(=N)N)C(=O)O [desK19] | 0.309

biological target: T1, ComD; experiment: cell-based; remark: another data set of the same source

Row | SMILES | IC50 [µM]
10 | CC[C@H](C)[C@H](N)C(=O)N[C@@H](CCCNC(=N)N)C(=O)N[C@@H](Cc1c[nH]cn1)C(=O)N[C@@H](CCCNC(=N)N)C(=O)N[C@H](C(=O)N[C@@H](CC(N)=O)C(=O)N[C@@H](CC(N)=O)C(=O)N[C@@H](CO)C(=O)N[C@H](C(=O)N[C@@H](Cc1c[nH]c2ccccc12)C(=O)N[C@@H](CCCNC(=N)N)C(=O)N[C@@H](CC(=O)O)C(=O)N[C@H](C(=O)N[C@@H](Cc1ccccc1)C(=O)N[C@@H](CC(C)C)C(=O)N[C@@H](CCCCN)C(=O)N[C@@H](CCCNC(=N)N)C(=O)N[C@@H](CCCCN)C(=O)O)[C@@H](C)CC)[C@@H](C)CC)[C@@H](C)CC [desD1] | 0.985
